Test results taken from patent publication US11976075B2, “Inhibitors of the MYST family of lysine acetyl transferases” (Isosterix, Inc., priority 2022, dated 2024).
Like-named read-outs stand apart in the source and are kept apart here.

Target: T1, Recombinant KAT6A/MOZ (488-778) protein (Homo sapiens, UniProt Q92794)
T1 construct: Recombinant KAT6A/MOZ (488-778) protein (Active motif, Catalog #81223); purchased Active Motif 81223
Assay: Kat6a AlphaLISA Inhibition Screening Assay
Type: biochemical
Outline: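 Recombinant KAT6A (488-778), 25 nM, was preincubated with compound (10-point dose response) for 60 or 10 min. It then reacted 120 min at room temperature with 200 nM biotin-H3(1-21) peptide and 400 nM acetyl-CoA, pH 8.0, with 330 nM TSA present. Acetylation was detected by AlphaLISA (anti-acetyl-lysine acceptor, streptavidin donor beads).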

[1] = 60′ pre-incubation, Table 2, read-out: Kat6A biochemical assay: IC50
[2] = 10′ pre-incubation, Table 3, read-out: Kat6A Biochemical assay: IC50
[3] = 60′ pre-incubation, Table 3, read-out: Kat6A Biochemical assay: IC50

T1 sequence (Q92794 488-778): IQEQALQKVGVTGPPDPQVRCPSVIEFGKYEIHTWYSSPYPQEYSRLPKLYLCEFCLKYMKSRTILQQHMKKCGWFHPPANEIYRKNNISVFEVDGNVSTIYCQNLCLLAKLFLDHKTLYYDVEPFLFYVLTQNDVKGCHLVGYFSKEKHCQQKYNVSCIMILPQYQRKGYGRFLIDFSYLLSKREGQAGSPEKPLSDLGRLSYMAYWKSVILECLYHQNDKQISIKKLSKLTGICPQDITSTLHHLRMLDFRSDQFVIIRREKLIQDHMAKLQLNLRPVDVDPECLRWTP

IC50 [1]	IC50 [3]	Structure (SMILES)	other results
> 10 µM	–	COc1ccccc1S(=O)(=O)Nc1noc2cc(CN3CCC(C(=O)NCC#N)CC3)cc(OC)c12 [Synthetic Example 63, N-(cyanomethyl)-1-((4-methoxy-3-((2-methoxyphenyl)sulfonamido)benzo[d]isoxazol-6-yl)methyl)piperidine-4-carboxamide]	–
≤ 10 µM	–	C#CC(=O)NCc1cnn(Cc2cc(OC)n3c(NS(=O)(=O)c4ccccc4OC)nnc3c2)c1 [Synthetic Example 66, N-((1-((5-methoxy-3-((2-methoxyphenyl)sulfonamido)-[1,2,4]triazolo[4,3-a]pyridin-7-yl)methyl)-1H-pyrazol-4-yl)methyl)propiolamide]	–
–	–	COc1cccc(OC)c1S(=O)(=O)Nc1n[nH]c2cc(Cn3cccn3)cc(OC)c12 [compound 125, N-(6-((1H-pyrazol-1-yl)methyl)-4-methoxy-1H-indazol-3-yl)-2,6-dimethoxybenzenesulfonamide]	IC50 [2]: ≤ 10 µM
≤ 10 µM	–	C=CC(=O)N1CCC(c2ccnc(-c3cc(C)cc(C(=O)NNS(=O)(=O)c4ccccc4F)c3)c2)CC1 [Synthetic Example 41, N-(3-(4-(1-acryloylpiperidin-4-yl)pyridin-2-yl)-5-methylbenzoyl)-2-fluorobenzenesulfonohydrazide]	–
–	–	COc1cccc(OC)c1S(=O)(=O)Nc1nn(C)c2cc(Cn3cccn3)cc(OC)c12 [compound 123, N-(6-((1H-pyrazol-1-yl)methyl)-4-methoxy-1-methyl-1H-indazol-3-yl)-2,6-dimethoxybenzenesulfonamide]	IC50 [2]: 10 to 20 µM
≤ 10 µM	–	C#CC(=O)NCc1cnn(Cc2cc(OC)c3c(NS(=O)(=O)c4c(OC)cccc4OC)noc3c2)c1 [Synthetic Example 34, N-((1-((3-((2,6-dimethoxyphenyl)sulfonamido)-4-methoxybenzo[d]isoxazol-6-yl)methyl)-1H-pyrazol-4-yl)methyl)propiolamide]	–
≤ 10 µM	–	C#CC(=O)NCc1cnn(Cc2cc(OC)c3c(NS(=O)(=O)c4ccccc4C(=O)NC)noc3c2)c1 [compound 68, 2-(N-(4-methoxy-6-((4-(propiolamidomethyl)-1H-pyrazol-1-yl)methyl)benzo[d]isoxazol-3-yl)sulfamoyl)-N-methylbenzamide]	–
≤ 10 µM	–	C=CC(=O)N1CCN(c2ccccc2-c2cc(OC)c3c(NS(=O)(=O)c4c(OC)cccc4OC)noc3c2)CC1 [Synthetic Example 58, N-(6-(2-(4-acryloylpiperazin-1-yl)phenyl)-4-methoxybenzo[d]isoxazol-3-yl)-2,6-dimethoxybenzenesulfonamide]	–
–	≤ 10 µM	C#CC(=O)N1CCC(c2ccnc(-c3cc(C)cc(C(=O)NNS(=O)(=O)c4ccccc4F)c3)c2)C1 (centres unmarked) [compound 92, 2-fluoro-N′-(3-methyl-5-(4-(1-propioloylpyrrolidin-3-yl)pyridin-2-yl)benzoyl)benzenesulfonohydrazide]	–
≤ 10 µM	–	COc1ccccc1S(=O)(=O)Nc1noc2cc(Cn3cc(C(=O)NCC#N)cn3)cc(OC)c12 [Synthetic Example 62, N-(cyanomethyl)-1-((4-methoxy-3-((2-methoxyphenyl)sulfonamido)benzo[d]isoxazol-6-yl)methyl)-1H-pyrazole-4-carboxamide]	–
–	≤ 10 µM	C#CC(=O)N1CCN(c2cccc(-c3cc(OC)c4c(NS(=O)(=O)N(C)C5CCCCC5)noc4c3)c2)CC1 [compound 112, 3-[[cyclohexyl(methyl)sulfamoyl]amino]-4-methoxy-6-[3-(4-prop-2-ynoylpiperazin-1-yl)phenyl]-1,2-benzoxazole]	–
–	≤ 10 µM	C#CC(=O)N1CCc2c(cnn2Cc2cc(OC)c3c(NS(=O)(=O)c4cc(CC)ccc4OC)noc3c2)C1 [105a, 5-ethyl-2-methoxy-N-(4-methoxy-6-((5-propioloyl-4,5,6,7-tetrahydro-1H-pyrazolo[4,3-c]pyridin-1-yl)methyl)benzo[d]isoxazol-3-yl)benzenesulfonamide]	–
≤ 10 µM	–	C#CC(=O)NCc1cnn(Cc2cc(OC)c3c(NS(=O)(=O)CC4CCCCC4)noc3c2)c1 [compound 5]	–
≤ 10 µM	–	C#CC(=O)N1C[C@H]2CN(Cc3cc(OC)c4c(NS(=O)(=O)c5ccccc5OC)noc4c3)C[C@H]2C1 [Synthetic Example 44, 2-methoxy-N-(4-methoxy-6-(((3aR,6aS)-5-propioloylhexahydropyrrolo[3,4-c]pyrrol-2(1H)-yl)methyl)benzo[d]isoxazol-3-yl)benzenesulfonamide]	–
–	–	CCC(=O)NCc1ccn(Cc2cc(OC)c3c(NS(=O)(=O)CC4CCCCC4)noc3c2)n1 [compound 129]	IC50 [2]: ≤ 10 µM
–	> 10 µM	C=CC(=O)N1CCC(c2ccccc2-c2cc(OC)c3c(NS(=O)(=O)c4c(OC)cccc4OC)noc3c2)C1 (centres unmarked) [compound 75, N-(6-(2-(1-acryloylpyrrolidin-3-yl)phenyl)-4-methoxybenzo[d]isoxazol-3-yl)-2,6-dimethoxybenzenesulfonamide]	–
–	≤ 10 µM	C=CS(=O)(=O)NCc1cnn(Cc2cc(OC)c3c(NS(=O)(=O)c4cc(CC)ccc4OC)noc3c2)c1 [compound 81, 5-ethyl-2-methoxy-N-(4-methoxy-6-((4-(vinylsulfonamidomethyl)-1H-pyrazol-1-yl)methyl)benzo[d]isoxazol-3-yl)benzenesulfonamide]	–
≤ 10 µM	–	C=CS(=O)(=O)N1Cc2cnn(Cc3cc(OC)c4c(NS(=O)(=O)c5ccccc5OC)noc4c3)c2C1 [Synthetic Example 27A, 2-methoxy-N-(4-methoxy-6-((5-(vinylsulfonyl)-5,6-dihydropyrrolo[3,4-c]pyrazol-1(4H)-yl)methyl)benzo[d]isoxazol-3-yl)benzenesulfonamide]	–
–	–	C=CC(=O)N1CCC(C(=O)NCc2ccc3cc(C(=O)NS(=O)(=O)c4ccccc4F)oc3c2)CC1 [Synthetic Example 14, 1-acryloyl-N-((2-(((2-fluorophenyl)sulfonyl)carbamoyl)benzofuran-6-yl)methyl)piperidine-4-carboxamide]	IC50 (10′ pre-incubation, Table 2, read-out: Kat6A biochemical assay: IC50): 20 to 50 µM
≤ 10 µM	–	C=CC(=O)NCC(=O)NCc1cnn(Cc2cc(OC)c3c(NS(=O)(=O)c4ccccc4OC)noc3c2)c1 [Synthetic Example 61, N-[2-[[1-[[4-methoxy-3-[(2-methoxyphenyl)sulfonylamino]-1,2-benzoxazol-6-yl]methyl]pyrazol-4-yl]methylamino]-2-oxo-ethyl]prop-2-enamide]	–
–	≤ 10 µM	C#CC(=O)N1CCN(c2csc(-c3cc(OC)c4c(NS(=O)(=O)c5c(OC)cccc5OC)noc4c3)n2)CC1 [compound 118, 2,6-dimethoxy-N-(4-methoxy-6-(4-(4-propioloylpiperazin-1-yl)thiazol-2-yl)benzo[d]isoxazol-3-yl)benzenesulfonamide]	–

Structure (SMILES)	IC50 [1]	IC50 [3]	other results
COc1ccccc1S(=O)(=O)Nc1noc2cc(Cn3cc(CNS(=O)(=O)c4cc(F)c(F)c(F)c4)cn3)cc(OC)c12 [compound 80, 3,4,5-trifluoro-N-((1-((4-methoxy-3-((2-methoxyphenyl)sulfonamido)benzo[d]isozolol-6-yl)methyl)-1H-pyrazol-4-yl)methyl) benzenesulfonamide]	–	≤ 10 µM	–
C=CS(=O)(=O)N1CCN(c2cccc(-c3cc(OC)c4c(NS(=O)(=O)c5c(OC)cccc5OC)noc4c3)c2)CC1 [compound 72, 2,6-dimethoxy-N-(4-methoxy-6-(3-(4-(vinylsulfonyl)piperazin-1-yl)phenyl)benzo[d]isoxazol-3-yl) benzenesulfonamide]	–	≤ 10 µM	–
